From publication PMC7138916 (Pharmacology Research & Perspectives, 2020) come the findings set out here.

In one data set the target is human P-gp (MDR1) (Homo sapiens, UniProt P08183). The data set can be described thus: Bidirectional permeability and efflux ratio in MDR1‐MDCK cells. The following applies: human; for Papp A→B at 2 h, 1 μmol/L / Papp B→A at 2 h, 1 μmol/L: MDCK-MDR1. The data set is classed as in vitro ADME.
For the next data set, the target named is human P‐gp (MDR1‐MDCK) (Homo sapiens, UniProt P08183). Described as above. The data set is classed as in vitro ADME. To be noted: MDR1‐MDCK cell line; for Efflux ratio: P app(B–A)/P app(A–B).
Chain of human P‐gp (MDR1‐MDCK) (P08183 whole entry): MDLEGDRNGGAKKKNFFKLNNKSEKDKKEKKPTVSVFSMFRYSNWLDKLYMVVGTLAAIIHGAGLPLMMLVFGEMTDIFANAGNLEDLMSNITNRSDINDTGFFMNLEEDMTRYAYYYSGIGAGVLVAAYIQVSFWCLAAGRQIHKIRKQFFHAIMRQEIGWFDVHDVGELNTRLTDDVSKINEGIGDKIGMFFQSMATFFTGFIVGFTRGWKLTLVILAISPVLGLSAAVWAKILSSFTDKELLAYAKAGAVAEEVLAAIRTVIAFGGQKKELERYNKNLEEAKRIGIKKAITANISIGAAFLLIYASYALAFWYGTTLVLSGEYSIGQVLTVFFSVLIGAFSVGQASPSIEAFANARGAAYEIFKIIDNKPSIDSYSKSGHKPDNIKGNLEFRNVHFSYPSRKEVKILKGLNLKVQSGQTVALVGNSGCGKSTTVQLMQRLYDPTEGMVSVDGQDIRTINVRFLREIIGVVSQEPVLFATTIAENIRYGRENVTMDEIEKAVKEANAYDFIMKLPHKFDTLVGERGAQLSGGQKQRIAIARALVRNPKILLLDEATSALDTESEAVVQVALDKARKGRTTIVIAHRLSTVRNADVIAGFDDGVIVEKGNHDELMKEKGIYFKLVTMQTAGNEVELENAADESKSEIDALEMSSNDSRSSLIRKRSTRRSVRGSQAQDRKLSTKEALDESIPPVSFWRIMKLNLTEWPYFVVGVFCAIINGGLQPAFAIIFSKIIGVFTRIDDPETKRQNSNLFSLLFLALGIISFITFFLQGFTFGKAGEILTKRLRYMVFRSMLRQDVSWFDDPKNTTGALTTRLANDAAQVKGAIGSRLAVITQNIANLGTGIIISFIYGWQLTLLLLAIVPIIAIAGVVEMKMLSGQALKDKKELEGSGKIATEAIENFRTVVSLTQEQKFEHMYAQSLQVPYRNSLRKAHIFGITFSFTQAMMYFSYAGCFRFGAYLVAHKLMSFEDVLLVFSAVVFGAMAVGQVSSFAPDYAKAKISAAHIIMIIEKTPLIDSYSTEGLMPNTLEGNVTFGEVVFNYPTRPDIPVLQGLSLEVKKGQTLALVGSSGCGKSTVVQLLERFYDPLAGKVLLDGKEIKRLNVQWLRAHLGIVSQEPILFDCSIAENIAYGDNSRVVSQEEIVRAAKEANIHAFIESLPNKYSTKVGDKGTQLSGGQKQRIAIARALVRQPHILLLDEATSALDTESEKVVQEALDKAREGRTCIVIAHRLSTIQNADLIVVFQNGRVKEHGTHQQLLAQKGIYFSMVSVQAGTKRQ
The test system of data set [1] is efflux transporters (eg, P‐gp, BCRP, MRPs). Put plainly: Classification as efflux transporter substrate. The following applies: for Efflux transporter substrate: Yes/No; for Class (based on membrane permeability and ER value): parental MDCK, MDR1‐MDCK, and Caco‐2 cell lines.
Data set [2] can be described thus: Rat brain and blood microdialysis at steady state. To be noted: rat; for concentration at 6 h: male, Sprague-Dawley, in vivo, iv, C m,brain.
The nature of data set [3]: Bidirectional permeability in parental MDCK cells. The following applies: dog, MDCK. Format: in vitro ADME, Canine.
Data set [4] can be described thus: Bidirectional permeability and efflux ratio in Caco‐2 cells. To be noted: human; for Papp A→B at 2 h, 5 μmol/L / Papp B→A at 2 h, 5 μmol/L: Caco-2. Format: in vitro ADME, human. (In general: Passage across Caco-2 layers is used to estimate intestinal permeability.)
The next data set has as its system Caco‐2 cell line. The data set is described as above. Format: in vitro ADME, human. The following applies: Caco‐2 cell line; for Efflux ratio: P app(B–A)/P app(A–B).
The nature of data set [5]: Rat pharmacokinetic study, IV single bolus. The following applies: for Vd / clearance / half-life: male, Sprague-Dawley, in vivo, iv.
Where [6] appears, read: steady‐state unbound concentration in brain (right striatum), microdialysis, IV infusion, mean ± SD.
Where [7] appears, read: IV single bolus, n = 3, mean ± SD.

Molecules are shown by their SMILES.

Chain of human P-gp (MDR1) (P08183 whole entry): as above

By Papp A→B is commonly meant the apparent permeability from the apical to the basolateral side of a cell layer. One may read the Papp B→A as the apparent permeability from the basolateral to the apical side of a cell layer. Broadly, the Papp is a coefficient for how fast a substance crosses the barrier. As a reminder, the Vd is a proportionality between amount in the body and measured concentration, not a real space. A high value points to wide distribution into tissue. The clearance is the volume of plasma or blood freed of the substance per unit of time. One may read the half-life as the time needed for the level to fall by half in the phase considered. Low values mean rapid decline, high ones slow decline. In the case of `NC(=O)N1c2ccccc2C=Cc2ccccc21` [Carbamazepine, carbamazepine], on human P-gp (MDR1), the apparent permeability from apical to basolateral (Papp A→B) at 2 h, 1 μmol/L is 34.3 ± 1.2 ×10⁻⁶ cm/s and the Papp B→A at 2 h, 1 μmol/L turned out to be 22.8 ± 0.5 ×10⁻⁶ cm/s. Moreover, the Efflux ratio on human P‐gp (MDR1‐MDCK) stood at 0.665. Moreover, the Efflux ratio result on human P‐gp (MDR1‐MDCK) (listed as carbamazepine) is given as “less than 2.0”. For the same molecule, in data set [1], the Efflux transporter substrate result is given as “No”; the “Class (based on membrane permeability and ER value)” value (“Class” for short) was “Class I”. Besides, the concentration at 6 h in data set [2] (setting [6]) was 1370 ± 170 nM. The “C csf higher than C m,brain by” value in data set [2] (steady state) was found to be 25%. Moreover, in data set [3], the apical-to-basolateral permeability (Papp A→B) at 2 h, 1 μmol/L was 34.2 ± 2.6 ×10⁻⁶ cm/s and the apparent permeability (Papp) at 2 h, 1 μmol/L is 27.5 ± 7.5 ×10⁻⁶ cm/s. In data set [4], the Papp A→B at 2 h, 5 μmol/L was 33.1 ± 2.3 ×10⁻⁶ cm/s and the basolateral-to-apical permeability (Papp B→A) at 2 h, 5 μmol/L was 22 ± 1 ×10⁻⁶ cm/s. For the same molecule, the Efflux ratio with Caco‐2 cell line was found to be 0.662. In addition, the Efflux ratio entry with Caco‐2 cell line (listed as carbamazepine) was “less than 2.0”. Besides, in data set [5], the Vd is 0.745 ± 0.081 L/kg, the clearance is 18.1 ± 2.9 mL/min/kg and the half-life was 59.6 ± 6.9 min.

As to `Cc1c(N)c(=O)n(-c2ccccc2)n1C` [4‐Aminoantipyrine, 4‐aminoantipyrine], the “P app(A–B)” value at human P‐gp (MDR1‐MDCK) (1 μmol/L, 2 hours, n = 4) is given as 39.1 ± 3.4 10^−6 cm/s; with Caco‐2 cell line (5 μmol/L, 2 hours, n = 4), 36.1 ± 2.5 10^−6 cm/s. Moreover, the “P app(B–A)” value at human P‐gp (MDR1‐MDCK) (1 μmol/L, 2 hours, n = 4) is reported as 25.9 ± 1.7 10^−6 cm/s; with Caco‐2 cell line (5 μmol/L, 2 hours, n = 4), 25.8 ± 1.5 10^−6 cm/s. For the same molecule, the Efflux ratio at human P‐gp (MDR1‐MDCK) is 0.662; on human P‐gp (MDR1‐MDCK) (listed as 4‐aminoantipyrine) it was “less than 2.0”; in the data set with Caco‐2 cell line, 0.713; in the data set with Caco‐2 cell line (listed as 4‐aminoantipyrine), “less than 2.0”. In addition, the Efflux transporter substrate entry in data set [1] is recorded as “No”. For the same molecule, the “Class” value in data set [1] was “Class I”. The molecule further returned a C csf in data set [2] (concentration in CSF at end of infusion (6 hours), n = 3‐4, mean ± SD) of 5.82 ± 0.49 µmol/L. In data set [2] (steady state), the “C csf lower than C m,brain by” value was “about 25%”. The “C m,blood” value in data set [2] (steady‐state unbound concentration in blood, microdialysis, IV infusion, n = 3‐4, mean ± SD) turned out to be 6.73 ± 0.32 µmol/L. For the same molecule, the “C m,brain” value in data set [2] (setting [6]) was 7.71 ± 0.67 µmol/L. In addition, the “T 1/2” value in data set [5] (setting [7]) turned out to be 53 ± 1.5 min. This molecule gave a V ss in data set [5] (setting [7]) of 0.772 ± 0.018 L/kg. In addition, the CL in data set [5] (plasma, IV single bolus, n = 3, mean ± SD) is on record as 17.7 ± 0.8 mL/min/kg.

By efflux ratio is commonly meant the permeability from basolateral to apical divided by that in the opposite direction, in the common usage. On to `CN(C)CCCC1(c2ccc(F)cc2)OCc2cc(C#N)ccc21` (centres unmarked) [Citalopram, citalopram], for which, at human P-gp (MDR1), the Papp A→B at 2 h, 1 μmol/L was found to be 13.8 ± 3.2 ×10⁻⁶ cm/s and the Papp B→A at 2 h, 1 μmol/L turned out to be 23.7 ± 0.7 ×10⁻⁶ cm/s. In addition, the efflux ratio at 2 h, 1 μmol/L at human P-gp (MDR1) (MDCK-MDR1, Efflux ratio, MDR1‐MDCK cell line, P app(B–A)/P app(A–B)) was less than 2. In addition, the Efflux ratio on human P‐gp (MDR1‐MDCK) came to 1.72. Besides, in data set [1], the Efflux transporter substrate entry is “No”; the “Class” value is “Class I”. The same molecule returned a concentration at 6 h in data set [2] (setting [6]) of 954 ± 91 nM. Moreover, in data set [3], the apparent permeability from apical to basolateral (Papp A→B) at 2 h, 1 μmol/L worked out at 19 ± 3.1 ×10⁻⁶ cm/s; the basolateral-to-apical permeability (Papp B→A) at 2 h, 1 μmol/L worked out at 10.9 ± 2.6 ×10⁻⁶ cm/s; the Papp at 2 h, 1 μmol/L was 15 ± 5.1 ×10⁻⁶ cm/s. In addition, in data set [4], the apical-to-basolateral permeability (Papp A→B) at 2 h, 5 μmol/L is 16 ± 1.8 ×10⁻⁶ cm/s and the Papp B→A at 2 h, 5 μmol/L was 17.4 ± 1.4 ×10⁻⁶ cm/s. Moreover, the efflux ratio at 2 h, 5 μmol/L in data set [4] (Caco-2, Efflux ratio, Caco‐2 cell line, P app(B–A)/P app(A–B)) was less than 2. In addition, in the data set with Caco‐2 cell line, the Efflux ratio is given as 1.09. Besides, in data set [5], the distribution volume (Vd) was 6.45 ± 0.64 L/kg, the clearance worked out at 95.9 ± 11.2 mL/min/kg and the half-life is 61.2 ± 3 min.

Consider `CC1COc2c(N3CCN(C)CC3)c(F)cc3c(=O)c(C(=O)O)cn1c23` (centres unmarked) [Ofloxacin, ofloxacin], for which, in data set [2] (setting [6]), the concentration at 6 h was found to be 678 ± 293 nM. In addition, in data set [5], the Vd is 5.08 ± 2.99 L/kg, the clearance came to 32.5 ± 4.9 mL/min/kg and the half-life was 379 ± 200 min.

In turn, `Nc1nc(O)c2ncn(COC(CO)CO)c2n1` [Ganciclovir, ganciclovir] gave a concentration at 6 h in data set [2] (setting [6]) of 2230 ± 960 nM. In data set [5], this molecule had a Vd of 0.852 ± 0.159 L/kg, a clearance of 21.5 ± 1.4 mL/min/kg and a half-life of 81 ± 2.4 min.
